From ChEMBL document CHEMBL1151569, “Diphenylmethyl ethers: synthesis and histamine H3-receptor antagonist in vitro and in vivo activity” (Bioorg Med Chem Lett, 1996)

Legend:
[1] = target: Histamine H1 receptor (Cavia porcellus) (UniProt P31389); test: In vitro antagonistic activity against histamine H1-receptor of guinea pig ileum; assay type: functional, tissue-based
[2] = target: Histamine H3 receptor (Mus musculus) (UniProt P58406); test: In vivo antagonistic activity against histamine H3-receptor of Swiss mice brain after peroral administration; assay type: functional, organism-based
[3] = target: Histamine H2 receptor (Cavia porcellus) (UniProt P47747); test: In vitro antagonistic activity against histamine H2-receptor of guinea pig atrium; assay type: functional, tissue-based; conditions: Cardiac atrium
Histamine H3 receptor = Histamine H3 receptor (Rattus norvegicus, UniProt Q9QYN8); test: In vitro antagonistic activity against histamine H3-receptor in an assay with K+-evoked depolarisation-induced release of [3H]histamine of synaptosomes of rat cerebral cortex; assay type: functional, subcellular, Brain
Chain of Histamine H3 receptor (Q9QYN8 whole entry): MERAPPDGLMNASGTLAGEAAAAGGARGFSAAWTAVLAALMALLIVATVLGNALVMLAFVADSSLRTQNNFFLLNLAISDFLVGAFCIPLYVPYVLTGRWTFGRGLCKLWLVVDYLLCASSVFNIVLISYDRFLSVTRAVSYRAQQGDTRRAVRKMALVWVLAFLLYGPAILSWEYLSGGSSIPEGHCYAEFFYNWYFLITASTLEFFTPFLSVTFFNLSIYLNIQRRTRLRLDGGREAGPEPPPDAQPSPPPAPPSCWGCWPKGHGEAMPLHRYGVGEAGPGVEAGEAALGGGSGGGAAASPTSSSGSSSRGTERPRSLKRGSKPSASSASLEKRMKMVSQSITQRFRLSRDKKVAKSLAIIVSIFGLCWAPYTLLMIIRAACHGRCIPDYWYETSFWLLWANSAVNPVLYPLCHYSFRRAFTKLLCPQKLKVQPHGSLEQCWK

Chain of Histamine H3 receptor (Mus musculus) (P58406 whole entry): as the sequence (Q9QYN8 whole entry) above, with T15A, A286T, A290G, R387H, I389V counted along it
Chain of Histamine H2 receptor (Cavia porcellus) (P47747 whole entry): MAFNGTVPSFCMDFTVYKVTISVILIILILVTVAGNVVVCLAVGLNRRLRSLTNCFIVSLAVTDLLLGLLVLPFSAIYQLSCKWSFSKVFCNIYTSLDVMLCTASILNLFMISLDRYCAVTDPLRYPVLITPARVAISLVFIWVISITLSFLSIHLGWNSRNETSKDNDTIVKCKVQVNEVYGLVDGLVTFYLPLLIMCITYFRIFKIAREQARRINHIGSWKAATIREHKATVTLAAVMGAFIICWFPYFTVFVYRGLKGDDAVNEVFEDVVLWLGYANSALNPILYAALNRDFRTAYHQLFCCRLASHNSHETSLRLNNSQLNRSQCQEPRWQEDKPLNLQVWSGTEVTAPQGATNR
Chain of Histamine H1 receptor (Cavia porcellus) (P31389 whole entry): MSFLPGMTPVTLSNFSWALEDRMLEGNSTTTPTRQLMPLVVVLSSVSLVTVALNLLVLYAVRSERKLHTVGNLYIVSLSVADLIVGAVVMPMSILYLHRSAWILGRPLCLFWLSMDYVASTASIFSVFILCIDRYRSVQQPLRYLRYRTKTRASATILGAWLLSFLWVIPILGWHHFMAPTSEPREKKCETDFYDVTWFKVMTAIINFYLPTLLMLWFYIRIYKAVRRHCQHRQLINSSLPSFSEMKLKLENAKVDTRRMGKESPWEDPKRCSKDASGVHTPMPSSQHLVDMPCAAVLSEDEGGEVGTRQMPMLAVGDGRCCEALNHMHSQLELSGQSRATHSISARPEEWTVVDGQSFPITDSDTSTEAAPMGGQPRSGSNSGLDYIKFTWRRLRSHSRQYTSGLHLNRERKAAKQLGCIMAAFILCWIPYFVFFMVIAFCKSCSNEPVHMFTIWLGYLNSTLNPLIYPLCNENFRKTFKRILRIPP

Row | Compound | Kb [1] [µM] | ED50 [2] [mg/kg] | -Log K [3] | Ki (Histamine H3 receptor) [µM]
1 | S=C(NC1CCCCC1)N1CCC(c2cnc[nH]2)CC1 | > 100 | 1 | < 5 | –
2 | Brc1ccc(C(OCCCc2c[nH]cn2)c2ccccc2)cc1 (stereo not given) | – | 3.6 | 5.4 | 0.126
3 | c1ccc(C(OCCCc2c[nH]cn2)c2ccccc2)cc1 | 0.501 | 2.4 | 5.5 | 0.0251
4 | Fc1ccc(C(OCCCc2c[nH]cn2)c2ccccc2)cc1 (stereo not given) | – | 1.2 | 5.3 | 0.0251
5 | Clc1ccc(C(OCCCc2c[nH]cn2)c2ccccc2)cc1 (stereo not given) | – | 3.9 | 5.2 | –
6 | FC(F)(F)c1ccc(C(OCCCc2c[nH]cn2)c2ccccc2)cc1 (stereo not given) | – | > 10 | – | 0.2
7 | Fc1ccc(C(OCCCc2c[nH]cn2)c2ccc(F)cc2)cc1 | – | 1.1 | 5.6 | 0.0251
8 | c1ccc2c(COCCCc3c[nH]cn3)cccc2c1 | – | 3.2 | 4.9 | 0.02
9 | c1ccc(COCCCc2c[nH]cn2)cc1 | 20 | > 10 | 3.7 | 0.02
10 | N=C(NCc1ccc(Cl)cc1)SCCCc1c[nH]cn1 | > 1 | 26 | < 6 | –
